The text below walks through data of US11826333B2, “Bactericidal debridement compositions for surgical site infections and chronic wound healing” (DePuy Synthes Products, Inc., priority 2020, dated 2023).

≈ marks a conversion by molar mass, not a printed value.

One assay relates to biofilms. The conditions noted are these: literature, Davies & Marques 2009; cited from earlier work.
For a further assay, the system named is MRSA. The conditions noted are these: literature, Jennings et al. 2012; cited from earlier work.
Assay [1] deals with P. aeruginosa, E. coli, K pneumoniae, Proteus mirabilis, Streptococcus pyogenes, B. subtilis, S. aureus, and the yeast C. albicans. As to conditions: literature, Rabin et al. 2015; many species of bacteria and across kingdom; cited from earlier work.
Another assay concerns planktonic S. aureus. In words: CDA effect on planktonic bacteria (visual MIC test and follow-up plating). It counts as cell-based. From the text:
As an additional test, several different CDA concentrations (800 ppm, 400 ppm, 200 ppm, 100 ppm, 50 ppm, 25 ppm, 12.5 ppm, and 6.25 ppm) were placed in vials including planktonic S. aureus. The vials can be seen in FIG. 3A. Two controls are on the right and unlabeled (bacteria/no fatty acid and no fatty acid/no bacteria, respectively). […] This test was qualitative and was based on whether there was observable bacteria in the test vials. In FIG. 3A, it can be seen that only the test vial containing 800 ppm CDA contains clear fluid, while the other tubes are all cloudy indicating active presence of bacteria.
Thus, even at an MIC of 800 ppm, CDA was not shown to be bactericidal but rather bacteriostatic with respect to planktonic bacteria.

In assay [2] the test system is S. aureus (ATCC 25923) biofilms grown for 48 hrs. In words: CDA dose response on mature biofilms (Example 1). It counts as cell-based. As to conditions: CDA at 200 ppm or greater in 5% DMSO; 24 hours exposure; 48 h biofilm. On the procedure: (§1) In the following examples, unless otherwise noted, testing was conducted on mature biofilms of S. aureus (ATCC 25923) that were grown for 48 hours. An exemplary preparation of the biofilm is as follows: • Prepare an overnight bacterial inoculum of S. aureus at a concentration of 10^9 CFU/mL in 20 mL in commercial Tryptic Soy Broth (TSB) by incubating at 37° C. shaker at 250 rpm; • Take an OD600 reading of a diluted stock of overnight culture to determine stock concentration with the absorbance method; • Adjust the concentration of bacteria to 10^5 CFU/mL using 0.3% (w/v) TSB forcibly aspirating up and down to break up clumps of colonies with a serological pipette from the stock concentration; • Plate the following dilutions in triplicates on TSA-L plates to determine the initial stock concentration of cells: 10^2 CFU/mL; • Add 7 mL of inoculum into each 15 ml tube containing K-wire using a serological pipette, making sure to again forcibly aspirate up and down prior to addition; • Place the tubes on the revolver at 30° C.; • After 8 hours, unscrew the caps and transfer the caps with sutures to a new tube with 7 mL of 0.3% TSB and incubate in the shaker-incubator for an additional 44 hours to grow the biofilm at 40 RPM growing; • During this time, change the media 2 times per day by unscrewing the cap and transferring to a new tube with 7 mL TSB. […]

The subject of assay [3] is S. aureus (ATC 25923) biofilm grown for 48 hours on K-wires. In words: 1 hour CDA/cefazolin exposure of debrided or full biofilm on K-wires (Example 3). It is filed as cell-based. The conditions noted are these: debrided biofilm; for Avg. Log CFU, K-Wire Testing / Avg. Log CFU, Well Testing: 21° C.; for Reduction (log CFU), K-Wire Testing / Reduction (log CFU), Well Testing: vs debrided biofilm control. As for the experimental part: The goal of this study was to determine whether the combination of CDA and Cefazolin can act quickly on a debrided contaminated wound site with an adjuvant killing effect of CDA and a therapeutic drug concentration. The biofilm was grown at 30° C. and the same 0.3% (w/v) media used in previous studies was used in this study. The biofilm was grown for 48 hours, then underwent a mechanical “debridement” process. This debridement was done to simulate the debridement of an infected wound site. After the physical removal of visual biofilm, the K-wires were exposed to 400 ppm CDA, 10 ppm cefazolin, or a combination of both, for one hour (in contrast to the previous studies where exposure was for 24 hrs). Separately, a test was conducted on an untreated biofilm (i.e., not debrided) using a higher concentration of CDA, approximately 800 ppm. This concentration of CDA was determined to be the MIC value for ATC 25923 planktonic cells as noted above in the previous example.
The contents of the wells and bacteria on the K-wires were diluted and plated to determine CFU/mL. Briefly, the K-wires were secured to tube caps and placed in tubes incubated with an initial inoculum concentration (10^5 CFU/mL) and grown for 24-48 hours. Media was changed roughly every 8 hours. After growth, the biofilms were exposed to a combination of CDA and cefazolin for 60 minutes.
After exposure time was completed, both the well samples and the debrided K-wires were treated, and the remaining bacteria cells were plated and counted. For the media in the wells, samples were centrifuged for 10 minutes at 3000 rpm and the supernatant was removed. The cells were resuspended in 10 mL 1×PBS buffer. This washing step was repeated for a second time and the cells resuspended again in a final volume of 1.5 mL neutralizing buffer, diluted and plated on Tryptic Soy Agar with Lectin (TSA-L) agar plates. For the K-wires, the caps securing the K-wires in the tubes were removed and transferred to tubes with 10 mL 1×PBS and the tubes were inverted. The cap with the K-wires were transferred again to another tube with PBS and the step was repeated. After washing the K-wires 2×, they were transferred to tubes with neutralizing buffer and vortexed followed by ultra-sonication for 10 minutes. The cells were then diluted and plated on TAS-L agar plates.
Prepare an overnight bacterial inoculum of S. aureus at a concentration of 10^9 CFU/mL in 20 mL in commercial TSB by incubating at 37° C. shaker at 250 rpm.
Adjust the concentration of bacteria to 10^5 CFU/mL using 0.3% (w/v) TSB making sure to forcibly aspirate up and down to break up clumps of colonies with a serological pipette from the stock concentration.
Add 7 mL of inoculum into each 15 ml tube containing K-wire using a serological pipette, making sure to again forcibly aspirate up and down prior to addition.
After 8 hours, unscrew the caps and transfer the caps with sutures to a new tube with 7 mL of 0.3% TSB and incubate in the shaker-incubator for an additional 44 hours to grow the biofilm at 40 RPM growing.
During this time, change the media 2× per day by unscrewing the cap and transferring to a new tube with 7 mL TSB. After 48 hours of growth, proceed with debridement of the biofilm and exposure.
Transfer the K-wires in new tubes containing 10 mL of 1×PBS, invert it two times and repeat the same step with one more PBS wash by inverting 2 times for a total of 2 washes.
Transfer caps with debrided biofilm to a new tube containing 10 mL of 0.1% TSB with DMSO only.
Transfer caps with debrided biofilm to a new tube containing 10 mL of 0.1% TSB+400 ppm concentration of CDA+5% DMSO.
Transfer caps with debrided biofilm to a new tube containing 10 mL of 0.1% TSB+10 ppm concentration of cefazolin.
Transfer caps with debrided biofilm to a new tube containing 10 mL of 0.1% TSB+10 ppm concentration of cefazolin+400 ppm CDA+5% DMSO. […]

Assay [4] concerns mature biofilms of S. aureus (ATCC 25923). In words: CDA dispersant effect on mature biofilms. It counts as cell-based. As to conditions: CDA ~0.05 ppm, 310 nM. On the procedure: (§2) In the following examples, unless otherwise noted, testing was conducted on mature biofilms of S. aureus (ATCC 25923) that were grown for 48 hours. An exemplary preparation of the biofilm is as follows: • Prepare an overnight bacterial inoculum of S. aureus at a concentration of 10^9 CFU/mL in 20 mL in commercial Tryptic Soy Broth (TSB) by incubating at 37° C. shaker at 250 rpm; • Take an OD600 reading of a diluted stock of overnight culture to determine stock concentration with the absorbance method; • Adjust the concentration of bacteria to 10^5 CFU/mL using 0.3% (w/v) TSB forcibly aspirating up and down to break up clumps of colonies with a serological pipette from the stock concentration; • Plate the following dilutions in triplicates on TSA-L plates to determine the initial stock concentration of cells: 10^2 CFU/mL; • Add 7 mL of inoculum into each 15 ml tube containing K-wire using a serological pipette, making sure to again forcibly aspirate up and down prior to addition; • Place the tubes on the revolver at 30° C.; • After 8 hours, unscrew the caps and transfer the caps with sutures to a new tube with 7 mL of 0.3% TSB and incubate in the shaker-incubator for an additional 44 hours to grow the biofilm at 40 RPM growing; • During this time, change the media 2 times per day by unscrewing the cap and transferring to a new tube with 7 mL TSB.

Assay [5] has as its system mature biofilms of S. aureus (ATCC 25923) grown for 48 hours on K-wires. In words: CDA + antibiotics on K-wires having mature biofilms (Example 2). It counts as cell-based. As to conditions: 400 ppm CDA adjuvant in combination with the named antibiotic; 48 h biofilm. On the procedure: as §2
New K-wires were roughened with #600 sandpaper (˜10× along the length) followed by rinsing with deionized water. The rinsed K-wires were then completely immersed in a 10% citric acid (w/v) bath at ˜49° C. for 20 minutes to passivate the surface of the stainless steel to prevent subsequent corrosion. After removal from the bath, the K-wires were then rinsed with deionized water. The K-wires were then washed and sterilized by autoclaving.
K-wires were secured to tube caps and placed in tubes incubated with an initial inoculum concentration (10^5 CFU/mL) and grown for 24-48 hours. Media was changed roughly every 8 hours. After growth, the inoculated K-wires were ready for testing.
After exposure time is completed, both the well samples and the debrided K-wires are treated, and remaining bacteria cells are plated and counted. For the media in the wells, samples are centrifuged for 10 minutes at 3000 rpm and the supernatant is removed. The cells are resuspended in 10 mL 1×PBS buffer. This washing step is repeated for a 2nd time and the cells resuspended again in a final volume of 1.5 mL neutralizing buffer, diluted and plated on Tryptic Soy Agar with Lectin (TSA-L) agar plates. For the K-wires, the caps securing the K-wires in the tubes are removed and transferred to tubes with 10 mL 1×PBS and the tubes are inverted. The caps with the K-wires are transferred again to another tube with PBS and the step repeated. After washing the K-wires 2 times, they are transferred to tubes with neutralizing buffer and vortexed followed by ultra-sonication for 10 minutes. The cells are then diluted and plated on TSA-L agar plates.
Following growth, biofilms were washed and treated with the fatty acid and/or antimicrobials to determine dose-response and adjuvant effects. After this time, the wells of the samples were diluted and plated to determine dispersion levels compared to controls. The K-wires were washed, sonicated to remove any residual cells, and the samples were plated to determine CFU/mL.

For the next assay, the system named is Staphylococcus aureus. As to conditions: literature, Stenz et al.; by inhibiting bacterial adhesion; cited from earlier work.
The test system of the next assay is Xanthomonas campestris. The conditions noted are these: literature, Dow et al. 2003; cited from earlier work.
Assay [6] concerns mature biofilms of S. aureus (ATCC 25923). In words: Systemic gentamicin testing on mature biofilms. It is filed as cell-based. The conditions noted are these: approximately 10 ppm (10 mcg/ml) gentamicin; data not shown. As for the experimental part:
as §1

Turning to `CCCCCCC/C=C\C(=O)O` [CDA, cis-2-decenoic acid], the “lowest concentration able to disperse biofilms” value in the assay with biofilms is listed as “about 2.5 nM”. In the assay on MRSA, the “concentration that inhibited biofilm formation” value is 125 ppm and the “concentration that inhibited the growth of MRSA” value is reported as at least 500 ppm. Further, in [1], the “effect on established biofilms” value is “disperse established biofilms”. In addition, the “growth in the tube” value in the assay on planktonic S. aureus (400 ppm CDA, planktonic S. aureus) is “visible growth”. In the assay with planktonic S. aureus (800 ppm CDA, 10 μL plated on TSA-L agar after 24 hours incubation), the bacteriostatic or bactericidal entry is listed as “bacteriostatic, not bactericidal”. Further, in the assay on planktonic S. aureus (Staphylococcus aureus, planktonic cells, qualitative, clear vs cloudy vials, read-out: minimum inhibitory concentration (MIC)), the MIC was 800 µg/mL (≈ 4.7 mM). For the same molecule, the “log reduction in CFU” value in [2] was “greater than 4 log”. In assay [3] (400 ppm CDA + 5% DMSO), the “Avg. Log CFU, K-Wire Testing” value is recorded as 7.8 Log CFU; the “Avg. Log CFU, Well Testing” value came to 5.6 Log CFU; the “Reduction (log CFU), K-Wire Testing” value was 1.6; the “Reduction (log CFU), Well Testing” value worked out at 0.6. The dispersion of biofilm result in [4] is given as “no observed dispersion”.
Take `Cc1nnc(SCC2=C(C(=O)O)N3C(=O)[C@@H](NC(=O)Cn4cnnn4)[C@H]3SC2)s1` [Cef, cefazolin]: in assay [5], the “log reduction of bacteria in the wells” value came to 7.8 log and the “log reduction of bacteria on the medical device (K-wires)” value (shortened to “log reduction of bacteria … (K-wires)”) is reported as 5.9 log. Also, in assay [3] (10 ppm cefazolin), the “Avg. Log CFU, K-Wire Testing” value is reported as 8.5 Log CFU; the “Avg. Log CFU, Well Testing” value worked out at 5.4 Log CFU; the “Reduction (log CFU), K-Wire Testing” value worked out at 0.9; the “Reduction (log CFU), Well Testing” value stood at 0.8.
`CCCCCCCC/C=C\CCCCCCCC(=O)O` [Oleic acid, cis-9-octadecanoic acid]: the “effect on biofilm formation” value in the assay with Staphylococcus aureus was “repress biofilm formation”.
Turning to `CC(C)CCCCCCC/C=C\C(=O)O` [cis-11-methyl-2-dodecenoic acid], the “effect on cell flocs” value in the assay on Xanthomonas campestris is on record as “disaggregate cell flocs”.
For the molecule `CN[C@H](CC(C)C)C(=O)N[C@H]1C(=O)N[C@@H](CC(N)=O)C(=O)N[C@H]2C(=O)N[C@H]3C(=O)N[C@H](C(=O)N[C@H](C(=O)O)c4cc(O)cc(O)c4-c4cc3ccc4O)[C@H](O)c3ccc(c(Cl)c3)Oc3cc2cc(c3O[C@@H]2O[C@H](CO)[C@@H](O)[C@H](O)[C@H]2O[C@H]2C[C@](C)(N)[C@H](O)[C@H](C)O2)Oc2ccc(cc2Cl)[C@H]1O` [vancomycin], in [5], the “log reduction of bacteria in the wells” value turned out to be 5.3 log and the “log reduction of bacteria … (K-wires)” value was 4.7 log.
Consider gentamicin, for which, in assay [5], the “log reduction of bacteria in the wells” value was determined as 6.3 log and the “log reduction of bacteria … (K-wires)” value amounted to 4.9 log. In assay [6], the “response of mature biofilms to gentamicin doses” value was “resistant”.
